Test systems include HOP-62 NSCLC; HS 578T breast; KM12 colon; LOX IMVI melanoma; RXF 393 renal; SNB-19 CNS; SNB-75 CNS; SR leukemia; SW-620 colon; T-47D breast.
Test in all cases: growth of human tumour cells (NCI), 48 h

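Interpolation was linear, between the two tested concentrations surrounding the appropriate level; five concentrations were tested over 48 hours in 96-well plates. GI50 marks 50% less growth. TGI denotes the concentration required for complete inhibition of growth.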

`O=C(Nc1cccc(-n2cc(-c3ccncc3)c(-c3ccc(O)c(Cl)c3)n2)c1)c1cccc(C(F)(F)F)c1`: the GI50 in the assay on HOP-62 NSCLC was 8.86 µM; in the assay with HS 578T breast, 2.26 µM; in the assay with KM12 colon, 2.67 µM; in the assay on LOX IMVI melanoma it was 2.35 µM; in the assay on RXF 393 renal, 1.1 µM; in the assay on SNB-19 CNS, 9.36 µM. Further, the GI50 in the assay with SNB-75 CNS was 2.07 µM; in the assay with SR leukemia it was 1.6 µM; in the assay on SW-620 colon, 5.81 µM; in the assay on T-47D breast, 3 µM. Besides, the TGI in the assay with HOP-62 NSCLC is more than 100 µM; in the assay with HS 578T breast, more than 100 µM; in the assay on KM12 colon, 64.3 µM; with LOX IMVI melanoma it was more than 100 µM; with RXF 393 renal it was 5.64 µM; in the assay on SNB-19 CNS, more than 100 µM. In addition, the TGI with SNB-75 CNS is more than 100 µM; with SR leukemia, 8.1 µM; in the assay with SW-620 colon, more than 100 µM; in the assay on T-47D breast, more than 100 µM.

For the molecule `O=[N+]([O-])c1cccnc1-n1cnc2ccccc21`, the TGI with HOP-62 NSCLC, in the assay with HS 578T breast, with KM12 colon, in the assay with LOX IMVI melanoma, with RXF 393 renal and with SNB-75 CNS was more than 100 µM each time. The TGI in the assay with SR leukemia, in the assay with SW-620 colon and in the assay on T-47D breast was more than 100 µM in each case.

For `Nc1nc(Cl)cc(NCC2(O)CCCC2)n1`, the TGI with HOP-62 NSCLC, with HS 578T breast, in the assay on KM12 colon, in the assay on LOX IMVI melanoma, in the assay on RXF 393 renal and in the assay with SNB-75 CNS was more than 100 µM throughout. In addition, the TGI in the assay with SR leukemia, in the assay with SW-620 colon and in the assay with T-47D breast was more than 100 µM each time.

For `NS(=O)(=O)c1ccc(NNc2c3ccccc3nc3c(C(=O)Nc4ccc(S(=O)(=O)Nc5ncccn5)cc4)cccc23)cc1`, the TGI in the assay with HOP-62 NSCLC, in the assay on HS 578T breast, with KM12 colon, with LOX IMVI melanoma, in the assay with RXF 393 renal and with SNB-19 CNS was more than 25 µM each time. Moreover, the TGI in the assay with SNB-75 CNS, in the assay on SR leukemia, in the assay on SW-620 colon and in the assay on T-47D breast was more than 25 µM in each case.

Take `CCN(CC)c1ccc2cc(-c3nc4ccccc4c(=O)[nH]3)c(=N)oc2c1`: the TGI in the assay on HOP-62 NSCLC, with HS 578T breast, in the assay on KM12 colon, in the assay on LOX IMVI melanoma, in the assay with RXF 393 renal and in the assay with SNB-19 CNS was more than 100 µM each time. Besides, the TGI in the assay with SNB-75 CNS, with SR leukemia, with SW-620 colon and with T-47D breast was more than 100 µM each time.

Regarding `CC1OC2OC3C(OCC(O)C3O)OC(=O)[C@]34CCC(C)(C)CC3C3=CCC5[C@@]6(C)C[C@H](O)[C@H](OC7OC(CO)C(O)C(O)C7OC7OCC(OC(=O)CC(C)(O)CC(=O)OC1C(OC1OC(CO)C(O)C(O)C1O)C2O)C(O)C7O)[C@@](C)(CO)C6CC[C@@]5(C)[C@]3(C)CC4` (stereo partly specified), the TGI was found to be 8.75 µM in the assay on HOP-62 NSCLC; 30.1 µM in the assay on HS 578T breast; 19.3 µM with KM12 colon; 20.6 µM in the assay on LOX IMVI melanoma; 22.9 µM in the assay on SNB-19 CNS; 22.9 µM in the assay on SNB-75 CNS. Further, the TGI was determined as 17 µM in the assay with SR leukemia, 20.3 µM with SW-620 colon and 20.3 µM in the assay on T-47D breast.

With `CSc1ccc(/C=C2\N=C(c3ccccc3)N(/N=C/c3cc4cc(C)ccc4nc3Cl)C2=O)cc1`, the TGI with HOP-62 NSCLC is more than 100 µM; with HS 578T breast, 65.9 µM; in the assay on KM12 colon it was 33.8 µM; in the assay with LOX IMVI melanoma, 44.6 µM; in the assay on SNB-19 CNS, 43.1 µM; with SNB-75 CNS, 49.2 µM. Further, the TGI is 44.2 µM in the assay on SR leukemia, more than 100 µM with SW-620 colon and 91 µM in the assay with T-47D breast.

As to `O=C(c1ccco1)N(C(=S)OC12CC3CC(CC(C3)C1)C2)c1ccccc1`, the TGI is more than 100 µM in the assay with HOP-62 NSCLC; 98 µM in the assay with HS 578T breast; more than 100 µM with KM12 colon; 86.2 µM in the assay with LOX IMVI melanoma; 44.8 µM with RXF 393 renal; more than 100 µM in the assay on SNB-19 CNS. The TGI in the assay with SNB-75 CNS is more than 100 µM; with SR leukemia, 97.9 µM; in the assay on SW-620 colon it was more than 100 µM; with T-47D breast, more than 100 µM.

On to `O=C1CC(n2cccc2)c2c(Br)sc(Br)c21` (stereo unspecified), for which the TGI is 53.4 µM in the assay with HOP-62 NSCLC; more than 72.3 µM with HS 578T breast; 22.8 µM with KM12 colon; 21.7 µM in the assay with LOX IMVI melanoma; 43.4 µM in the assay with RXF 393 renal; 28.1 µM with SNB-19 CNS. The TGI in the assay with SNB-75 CNS was 35.1 µM; in the assay on SR leukemia, 12 µM; in the assay with SW-620 colon, 41.3 µM; in the assay with T-47D breast it was 46.3 µM.

As to `COC(=O)[C@@H]1CN(C(=O)c2ccccc2)C(=O)N1C(=O)OCc1ccccc1`, the TGI in the assay on HOP-62 NSCLC, with HS 578T breast, in the assay with KM12 colon, in the assay with LOX IMVI melanoma, with RXF 393 renal and in the assay on SNB-19 CNS was more than 100 µM throughout. The TGI with SNB-75 CNS, with SR leukemia, in the assay on SW-620 colon and with T-47D breast was more than 100 µM each time.

With `Cc1ccc(S(=O)(=O)N(CC(O)COc2ccccc2)c2ccc(F)cc2F)cc1` (stereo unspecified), the TGI in the assay with HOP-62 NSCLC came out at 30.1 µM; in the assay on HS 578T breast, 39.9 µM; in the assay on KM12 colon, 68.1 µM; in the assay with LOX IMVI melanoma it was 27.3 µM; in the assay with RXF 393 renal, 27 µM; with SNB-19 CNS, 41.9 µM. For the same molecule, the TGI amounted to 29.4 µM in the assay with SNB-75 CNS, 73.6 µM with SR leukemia, 31.9 µM in the assay with SW-620 colon and 46.4 µM in the assay with T-47D breast.

With `CN(C)C(=S)Oc1ccc2ccc(=O)oc2c1`, the TGI in the assay on HOP-62 NSCLC, in the assay with HS 578T breast, in the assay on KM12 colon, in the assay with LOX IMVI melanoma, in the assay with RXF 393 renal and in the assay on SNB-19 CNS was more than 100 µM throughout. Besides, the TGI in the assay with SNB-75 CNS, in the assay on SR leukemia, in the assay on SW-620 colon and with T-47D breast was more than 100 µM in each case.

The record behind these values is PubChem BioAssay (NCI).
